Results on three compounds are retold here after article PMC4356558, “Prediction of Chemical Respiratory Sensitizers Using GARD, a Novel In Vitro Assay Based on a Genomic Biomarker Signature” (PLoS ONE, 2015).

Data set [1] relates to GRPS genomic biomarker signature (389 transcripts) in MUTZ-3 cells. The data set is described as follows: GARD assay with GARD Respiratory Prediction Signature (GRPS), SVM classification of respiratory sensitizers. The protocol:
The human acute myelomonocytic leukemia cell line MUTZ-3[68, 69] was obtained from Leibniz-Institut DSMZ-Deutsche Sammlung von Mikroorganismen und Zellkulturen (DSMZ, Braunschweig, Germany). Maintenance of cells, chemical stimulation of MUTZ-3 and all subsequent isolation of mRNA and preparation of cDNA were performed as previously described. In short, a phenotypic control of MUTZ-3 was performed using flow cytometry prior to chemical stimulation to ensure cells were in an immature state. The following FITC-conjugated mouse monoclonal antibodies (mAbs) were used: CD1a (DakoCytomation, Glostrup, Denmark), CD34, CD86, HLA-DR, IgG1 (BD Biosciences, Franklin Lakes, NJ). The following PE-conjugated mouse monoclonal antibodies were used: CD14 (DakoCytomation), CD54, CD80, IgG1 (BD Biosciences). Cell viability was determined using Propidium Iodide (BD Biosciences) staining. Samples were run on FACSCanto II instrument. Data was acquired using FACS Diva software (BD Biosciences) and analyzed using FCS Express V4 (De Novo Software, Los Angeles, CA). Gating was performed to exclude cell debris and non-viable cells based on forward- and side-scattering properties and quadrants established using isotype-controls. During chemical exposure, cells were seeded at 200.000 cells/ml in 24-well plates and exposed to chemical compound at the GARD input concentration. Stimulated cells were harvested after 24h incubation at 37 °C, 5% CO2 and RNA was isolated with TRIzol reagent (Life Technologies, Carlsbad, CA) using standardized protocols provided by the manufacturer. In parallel, a control of the maturity state of the cells was performed by flow cytometric analysis of CD86. Preparation of cDNA and hybridization, washing and scanning of the Human Gene 1.0 ST Arrays (Affymetrix, Santa Clara, CA, USA) was performed, according to standardized protocols provided by the manufacturer (Affymetrix).
Gene expression data obtained from the Human Gene 1.0 ST Arrays were normalized using the Single-Channel array normalization (SCAN) algorithm, and potential batch effects between different set of experiments were adjusted using the ComBat empirical bayes method. Normalizations and batch adjustments were performed in R statistical software using the open software Bioconductor v2.14 [73] with the additional software packages SCAN.UPC [70] and sva. Normalized data was imported into Qlucore Omics Explorer 3.0 (Qlucore AB, Lund, Sweden) and visualized using Principal Component Analysis (PCA). Predictors were selected from a one-way ANOVA p-value filtration, using false discovery rate (FDR) to adjust for multiple hypothesis testing, comparing respiratory sensitizers and non-respiratory sensitizers. […] The Backward Elimination algorithm was modified to minimize the Kullback-Leibler error [53] rather than maximizing the Area Under the Receiver Operating Characteristic (AUC ROC), in order to enable signature optimization in cases where the AUC ROC reaches 1.0. […] The script for Backwards Elimination was programmed in R, with the additional package e1071 [78]. The method by which the predictive genomic biomarker signature was established was validated using cross-validation based on Support Vector Machines (SVM), based on a linear kernel, as described previously. In short, the training dataset was randomly divided into a new cross-validation training dataset comprising 70% of the stimulations, and a cross-validation test dataset comprising 30% of the stimulations. In addition, care was taken to maintain the same proportion between respiratory sensitizers and non-respiratory sensitizers as in the complete training dataset. A new predictive genomic biomarker signature was identified from the cross-validation training dataset using one-way ANOVA p-value filtration as described above.

Data set [2] concerns GPS genomic biomarker signature (200 genes) in MUTZ-3 cells.
Description: The GARD assay is based on measurements of transcriptional levels of a genomic biomarker signature (GARD Prediction Signature, or GPS) comprising 200 genes in the myeloid human cell line MUTZ-3 [43–45] using transcriptome-wide DNA microarray technology.
The human acute myelomonocytic leukemia cell line MUTZ-3[68, 69] was obtained from Leibniz-Institut DSMZ-Deutsche Sammlung von Mikroorganismen und Zellkulturen (DSMZ, Braunschweig, Germany). Maintenance of cells, chemical stimulation of MUTZ-3 and all subsequent isolation of mRNA and preparation of cDNA were performed as previously described [41, 42]. In short, a phenotypic control of MUTZ-3 was performed using flow cytometry prior to chemical stimulation to ensure cells were in an immature state. The following FITC-conjugated mouse monoclonal antibodies (mAbs) were used: CD1a (DakoCytomation, Glostrup, Denmark), CD34, CD86, HLA-DR, IgG1 (BD Biosciences, Franklin Lakes, NJ). The following PE-conjugated mouse monoclonal antibodies were used: CD14 (DakoCytomation), CD54, CD80, IgG1 (BD Biosciences). Cell viability was determined using Propidium Iodide (BD Biosciences) staining. Samples were run on FACSCanto II instrument. Data was acquired using FACS Diva software (BD Biosciences) and analyzed using FCS Express V4 (De Novo Software, Los Angeles, CA). […]
A short description of the next data set: physchem. The conditions noted are these: aqueous buffer, kinetic from dmso stock.

In brackets after ≈: the same amount, converted by molar mass.

Turning to `C1CNCCN1` [Piperazine], the “SVM decision value 1” value in data set [1] (replicate stimulation 1, 24 h at GARD input concentration, independent test dataset, > 0 = respiratory sensitizer) is listed as −0.05. Besides, the “SVM decision value 2” value in data set [1] (replicate stimulation 2, 24 h at GARD input concentration, independent test dataset, > 0 = respiratory sensitizer) was −0.12. In addition, the “Classification, Pos if 1 sample > 0” value in data set [1] (respiratory sensitizer if any of replicate stimulations has SVM decision value > 0) is given as “Non-sensitizer”. In addition, in data set [1] (validation using the independent dataset), the “GRPS prediction compared with true identity” value is reported as “false negatives”. Also, in data set [2], the “Prediction in the GARD assay (skin sensitization)” value is given as “accurately predicted as skin sensitizers”.
For the compound `Cc1ccc(N=C=O)cc1N=C=O` [Toluendiisocyanate], the solubility (commonly the dissolved amount per volume that the medium holds) in the data set “physchem” came to 40 µM (≈ 6.97 µg/mL).
The same measure, in the same setting: the result for `O=C=NCCCCCCN=C=O` [Hexamethylen diisocyanate] reads 100 µM (≈ 16.8 µg/mL).
